Measured values reported in patent publication US10065963B2 (Incyte Corporation, priority 2015, dated 2018).
Counter-ions that a name gives are not always drawn. Like-named read-outs stand apart in the source and are kept apart here.

Experiments:
[1] = target: PI3Kγ (p110γ) Recombinant Human Protein (Homo sapiens (Human), UniProt P48736); experiment: PI3K-γ scintillation proximity assay; assay type: biochemical; conditions: 2 μM ATP, 20 μM PIP2
[2] = target: PI3Kδ (p110δ/p85α) Recombinant Human Protein (Homo sapiens (Human), UniProt O00329); experiment: PI3Kδ scintillation proximity assay; assay type: biochemical; conditions: 2 μM ATP, 20 μM PIP2
[3] = test system: Phosphorylated Ribosomal Protein S6 (RPS6) in THP-1 cells; experiment: THP-1 RPS6 ELISA assay; assay type: cell-based, human; conditions: 10 nM MCP-1, read-out: PI3Kγ_THP1_RPS6_ELISA IC50
[4] = Homo sapiens, THP-1, THP-1 cells

PI3Kδ (p110δ/p85α) Recombinant Human Protein, sequence (O00329 whole entry): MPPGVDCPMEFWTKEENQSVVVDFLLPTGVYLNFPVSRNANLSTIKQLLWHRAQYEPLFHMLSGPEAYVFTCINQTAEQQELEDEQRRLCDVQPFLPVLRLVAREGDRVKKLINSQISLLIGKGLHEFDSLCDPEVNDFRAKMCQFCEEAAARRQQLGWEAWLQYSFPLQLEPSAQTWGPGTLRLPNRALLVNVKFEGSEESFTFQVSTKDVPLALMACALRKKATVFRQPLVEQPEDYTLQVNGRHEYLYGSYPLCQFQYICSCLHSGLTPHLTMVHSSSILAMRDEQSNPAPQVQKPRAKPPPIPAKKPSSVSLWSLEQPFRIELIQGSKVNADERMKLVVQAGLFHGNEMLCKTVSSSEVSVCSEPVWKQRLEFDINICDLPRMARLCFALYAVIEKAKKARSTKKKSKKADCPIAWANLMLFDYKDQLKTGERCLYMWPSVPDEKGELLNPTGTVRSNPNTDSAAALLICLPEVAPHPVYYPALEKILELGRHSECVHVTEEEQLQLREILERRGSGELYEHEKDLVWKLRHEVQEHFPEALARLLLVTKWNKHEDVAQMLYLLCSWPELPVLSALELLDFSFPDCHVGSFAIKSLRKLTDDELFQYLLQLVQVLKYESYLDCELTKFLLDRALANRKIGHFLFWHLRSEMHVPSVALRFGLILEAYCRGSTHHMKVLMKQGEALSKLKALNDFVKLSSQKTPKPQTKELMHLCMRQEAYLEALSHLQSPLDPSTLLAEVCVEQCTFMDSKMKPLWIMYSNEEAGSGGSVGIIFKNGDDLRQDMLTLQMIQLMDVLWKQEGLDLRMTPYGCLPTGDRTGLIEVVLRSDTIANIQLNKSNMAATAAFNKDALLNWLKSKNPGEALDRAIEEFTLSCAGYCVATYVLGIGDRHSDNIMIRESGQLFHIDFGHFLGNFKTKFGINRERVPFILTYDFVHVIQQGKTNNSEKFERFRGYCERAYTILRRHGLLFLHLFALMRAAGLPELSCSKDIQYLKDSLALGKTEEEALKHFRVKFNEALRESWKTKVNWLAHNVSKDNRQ
PI3Kδ (p110δ/p85α) Recombinant Human Protein, sequence (P27986 whole entry partner): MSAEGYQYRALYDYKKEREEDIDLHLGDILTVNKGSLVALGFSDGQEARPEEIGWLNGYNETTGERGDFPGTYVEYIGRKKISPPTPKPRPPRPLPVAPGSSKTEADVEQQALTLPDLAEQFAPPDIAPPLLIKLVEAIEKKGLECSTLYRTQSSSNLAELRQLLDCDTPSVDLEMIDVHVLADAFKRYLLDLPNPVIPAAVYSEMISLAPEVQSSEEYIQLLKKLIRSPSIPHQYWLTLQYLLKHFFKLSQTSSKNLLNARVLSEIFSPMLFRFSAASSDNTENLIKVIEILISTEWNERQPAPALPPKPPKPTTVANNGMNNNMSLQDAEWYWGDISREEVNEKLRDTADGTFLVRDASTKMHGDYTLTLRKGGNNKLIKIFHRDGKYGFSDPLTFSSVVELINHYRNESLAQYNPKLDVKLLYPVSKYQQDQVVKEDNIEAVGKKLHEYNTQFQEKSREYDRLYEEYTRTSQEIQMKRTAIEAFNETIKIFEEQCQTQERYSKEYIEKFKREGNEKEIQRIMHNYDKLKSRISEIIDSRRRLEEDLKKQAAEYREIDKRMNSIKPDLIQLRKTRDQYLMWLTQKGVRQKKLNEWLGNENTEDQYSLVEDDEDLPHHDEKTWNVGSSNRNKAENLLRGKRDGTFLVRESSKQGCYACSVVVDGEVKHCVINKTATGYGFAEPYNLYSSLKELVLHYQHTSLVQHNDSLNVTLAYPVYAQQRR
PI3Kγ (p110γ) Recombinant Human Protein, sequence (P48736 whole entry): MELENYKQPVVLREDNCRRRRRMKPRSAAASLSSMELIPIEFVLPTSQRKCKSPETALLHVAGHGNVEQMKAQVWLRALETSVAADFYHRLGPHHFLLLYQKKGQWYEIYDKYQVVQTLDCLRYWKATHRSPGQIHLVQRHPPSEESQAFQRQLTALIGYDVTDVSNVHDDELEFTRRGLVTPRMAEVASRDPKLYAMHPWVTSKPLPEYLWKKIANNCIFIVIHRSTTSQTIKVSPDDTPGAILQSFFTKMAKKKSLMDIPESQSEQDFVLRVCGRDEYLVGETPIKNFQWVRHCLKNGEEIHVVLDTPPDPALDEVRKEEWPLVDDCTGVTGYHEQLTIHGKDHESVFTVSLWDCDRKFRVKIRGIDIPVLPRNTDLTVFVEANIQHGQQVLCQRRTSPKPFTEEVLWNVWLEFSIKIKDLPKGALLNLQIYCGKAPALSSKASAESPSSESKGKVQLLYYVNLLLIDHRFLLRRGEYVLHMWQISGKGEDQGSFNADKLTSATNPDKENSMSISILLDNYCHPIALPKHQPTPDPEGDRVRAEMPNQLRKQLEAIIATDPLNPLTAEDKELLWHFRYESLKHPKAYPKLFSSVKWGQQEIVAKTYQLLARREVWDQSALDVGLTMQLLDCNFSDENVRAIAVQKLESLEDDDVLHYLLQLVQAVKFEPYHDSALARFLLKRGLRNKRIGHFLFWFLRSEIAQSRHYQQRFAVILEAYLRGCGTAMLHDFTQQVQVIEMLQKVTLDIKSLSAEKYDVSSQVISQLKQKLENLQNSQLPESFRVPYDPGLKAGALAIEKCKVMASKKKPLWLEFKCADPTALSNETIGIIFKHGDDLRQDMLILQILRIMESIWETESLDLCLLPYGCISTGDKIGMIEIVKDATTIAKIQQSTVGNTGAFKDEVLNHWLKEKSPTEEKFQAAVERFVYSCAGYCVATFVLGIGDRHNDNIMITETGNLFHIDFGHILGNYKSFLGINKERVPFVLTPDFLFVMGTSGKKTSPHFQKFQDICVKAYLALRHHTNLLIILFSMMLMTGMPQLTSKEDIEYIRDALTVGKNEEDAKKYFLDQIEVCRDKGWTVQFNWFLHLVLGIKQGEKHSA

| SMILES | IC50 [1] | IC50 [2] | IC50 [3, 4] | IC50 ([3]; THP-1 cells) |
| --- | --- | --- | --- | --- |
| CC(NC(=O)c1c(N)nn2cccnc12)c1cc(Cl)c2cncn2c1N1CCC2(CC1)COC(=O)N2 (stereo not drawn) [Example 79, 2-Amino-N-{1-[8-chloro-5-(2-oxo-3-oxa-1,8-diazaspiro[4.5]dec-8-yl)imidazo[1,5-a]pyridin-6-yl]ethyl}pyrazolo[1,5-a]pyrimidine-3-carboxamide trifluoroacetate] | < 0.1 µM | < 0.5 µM | > 1 µM | – |
| CC(NC(=O)c1c(N)nn2cccnc12)c1cc(Cl)c2cncn2c1N1CCC2(CC1)CNC(=O)O2 (stereo not drawn) [Example 80, 2-Amino-N-{1-[8-chloro-5-(2-oxo-1-oxa-3,8-diazaspiro[4.5]dec-8-yl)imidazo[1,5-a]pyridin-6-yl]ethyl}pyrazolo[1,5-a]pyrimidine-3-carboxamide trifluoroacetate] | < 0.1 µM | < 0.5 µM | < 0.5 µM | – |
| COCCOc1c(C(C)NC(=O)c2c(N)nn3cccnc23)cc(Cl)c2cn[nH]c12 (stereo not drawn) [Example 81, 2-Amino-N-(1-(4-chloro-7-(2-methoxyethoxy)-1H-indazol-6-yl)ethyl)pyrazolo[1,5-a]pyrimidine-3-carboxamide trifluoroacetate] | < 0.1 µM | < 0.1 µM | < 0.5 µM | – |
| COc1c(C(C)NC(=O)c2c(N)nn3cccnc23)cc(Cl)c2cn[nH]c12 (stereo not drawn) [Example 82, 2-Amino-N-(1-(4-chloro-7-methoxy-1H-indazol-6-yl)ethyl)pyrazolo[1,5-a]pyrimidine-3-carboxamide trifluoroacetate] | < 0.1 µM | < 0.1 µM | < 0.5 µM | – |
| CC(NC(=O)c1c(N)nn2cccnc12)c1cc(Cl)c2cn[nH]c2c1OC(F)F (stereo not drawn) [Example 83, 2-Amino-N-(1-(4-chloro-7-(difluoromethoxy)-1H-indazol-6-yl)ethyl)pyrazolo[1,5-a]pyrimidine-3-carboxamide trifluoroacetate] | < 0.1 µM | < 0.1 µM | < 0.5 µM | – |
| CC(NC(=O)c1c(N)nn2cccnc12)c1cc(Cl)c2cn[nH]c2c1OCCO (stereo not drawn) [Example 84, 2-Amino-N-(1-(4-chloro-7-(2-hydroxyethoxy)-1H-indazol-6-yl)ethyl)pyrazolo[1,5-a]pyrimidine-3-carboxamide trifluoroacetate] | < 0.1 µM | < 0.1 µM | < 0.5 µM | – |
| CC(NC(=O)c1c(N)nn2cccnc12)c1cc(Cl)c2cn[nH]c2c1OCC(O)CO (stereo not drawn) [Example 85, 2-Amino-N-(1-(4-chloro-7-(2,3-dihydroxypropoxy)-1H-indazol-6-yl)ethyl)pyrazolo[1,5-a]pyrimidine-3-carboxamide trifluoroacetate] | < 0.1 µM | < 0.1 µM | < 0.5 µM | – |
| CCOc1c(C(C)NC(=O)c2c(N)nn3cccnc23)cc(Cl)c2c(C#N)n[nH]c12 (stereo not drawn) [Example 86, 2-Amino-N-(1-(4-chloro-3-cyano-7-ethoxy-1H-indazol-6-yl)ethyl)pyrazolo[1,5-a]pyrimidine-3-carboxamide trifluoroacetate] | < 0.1 µM | < 0.5 µM | > 1 µM | – |
| CC(NC(=O)c1c(N)nn2cccnc12)c1cc(Cl)c2cncn2c1N1CCC(C)(O)CC1 (stereo not drawn) [Example 87, 2-Amino-N-(1-(8-chloro-5-(4-hydroxy-4-methylpiperidin-1-yl)imidazo[1,5-a]pyridin-6-yl)ethyl)pyrazolo[1,5-a]pyrimidine-3-carboxamide trifluoroacetate] | < 0.1 µM | < 0.5 µM | < 0.5 µM | – |
| CC(NC(=O)c1c(N)nn2cccnc12)c1cc(Cl)c2cncn2c1N1CCC(C)(C#N)CC1 (stereo not drawn) [Example 88, 2-Amino-N-(1-(8-chloro-5-(4-cyano-4-methylpiperidin-1-yl)imidazo[1,5-a]pyridin-6-yl)ethyl)pyrazolo[1,5-a]pyrimidine-3-carboxamide trifluoroacetate] | < 0.1 µM | < 0.1 µM | < 0.5 µM | – |
| CC(NC(=O)c1c(N)nn2cccnc12)c1cc(Cl)c2cncn2c1N1CCC(O)(C(F)(F)F)CC1 (stereo not drawn) [Example 89, 2-Amino-N-(1-(8-chloro-5-(4-hydroxy-4-(trifluoromethyl)piperidin-1-yl)imidazo[1,5-a]pyridin-6-yl)ethyl)pyrazolo[1,5-a]pyrimidine-3-carboxamide trifluroacetate] | < 0.1 µM | < 0.5 µM | – | < 0.5 µM |
| COC1CCN(c2c(C(C)NC(=O)c3c(N)nn4cccnc34)cc(Cl)c3cn[nH]c23)C1 (stereo not drawn) [Example 91, 2-Amino-N-{1-[4-chloro-7-(3-methoxypyrrolidin-1-yl)-2H-indazol-6-yl]ethyl}pyrazolo[1,5-a]pyrimidine-3-carboxamide bis(trifluoroacetate)] | < 0.1 µM | < 0.1 µM | < 1 µM | – |

Other lines, results leading:

| IC50 [1] | IC50 [2] | IC50 [3, 4] | IC50 ([3]; THP-1 cells) | SMILES |
| --- | --- | --- | --- | --- |
| < 0.1 µM | < 0.1 µM | < 0.5 µM | – | CC(NC(=O)c1c(N)nn2cccnc12)c1cc(Cl)c2cncn2c1N1CCC(F)(F)CC1 (stereo not drawn) [Example 65, 2-Amino-N-{1-[8-chloro-5-(4,4-difluoropiperidin-1-yl)imidazo[1,5-a]pyridin-6-yl]ethyl}pyrazolo[1,5-a]pyrimidine-3-carboxamide bistrifluoroacetate] |
| < 0.1 µM | < 0.1 µM | < 0.5 µM | – | CC(NC(=O)c1c(N)nn2cccnc12)c1cc(Cl)c2cncn2c1N1CCC(F)CC1 (stereo not drawn) [Example 66, 2-Amino-N-{1-[8-chloro-5-(4-fluoropiperidin-1-yl)imidazo[1,5-a]pyridin-6-yl]ethyl}pyrazolo[1,5-a]pyrimidine-3-carboxamide bistrifluoroacetate] |
| < 0.1 µM | < 0.1 µM | < 0.5 µM | – | CC(NC(=O)c1c(N)nn2cccnc12)c1cc(Cl)c2cncn2c1N1CCCC(F)(F)C1 (stereo not drawn) [Example 67, 2-Amino-N-{1-[8-chloro-5-(3,3-difluoropiperidin-1-yl)imidazo[1,5-a]pyridin-6-yl]ethyl}pyrazolo[1,5-a]pyrimidine-3-carboxamide bis trifluroacetate] |
| < 0.1 µM | < 0.1 µM | < 0.5 µM | – | CC(NC(=O)c1c(N)nn2cccnc12)c1cc(Cl)c2cncn2c1N1CCC(F)(F)C1 (stereo not drawn) [Example 68, 2-Amino-N-{1-[8-chloro-5-(3,3-difluoropyrrolidin-1-yl)imidazo[1,5-a]pyridin-6-yl]ethyl}pyrazolo[1,5-a]pyrimidine-3-carboxamide bistrifluoroacetate] |
| < 0.1 µM | < 0.5 µM | < 1 µM | – | CC1CCN(c2c(C(C)NC(=O)c3c(N)nn4cccnc34)cc(Cl)c3cncn23)CC1 (stereo not drawn) [Example 69, 2-Amino-N-{1-[8-chloro-5-(4-methylpiperidin-1-yl)imidazo[1,5-a]pyridin-6-yl]ethyl}pyrazolo[1,5-a]pyrimidine-3-carboxamide bistrifluoroacetate] |
| < 0.1 µM | < 0.1 µM | < 0.5 µM | – | CC(NC(=O)c1c(N)nn2cccnc12)c1cc(Cl)c2cncn2c1N1CCCC1(C)C (stereo not drawn) [Example 70, 2-Amino-N-{1-[8-chloro-5-(2,2-dimethylpyrrolidin-1-yl)imidazo[1,5-a]pyridin-6-yl]ethyl}pyrazolo[1,5-a]pyrimidine-3-carboxamide bistrifluoroacetate] |
| < 0.1 µM | < 0.5 µM | < 1 µM | – | CC(NC(=O)c1c(N)nn2cccnc12)c1cc(Cl)c2cncn2c1N1CCC[C@H]1C (stereo partly drawn) [Example 71A, 2-Amino-N-(1-{8-chloro-5-[(2R)-2-methylpyrrolidin-1-yl]imidazo[1,5-a]pyridin-6-yl}ethyl)pyrazolo[1,5-a]pyrimidine-3-carboxamide bistrifluoroacetate] |
| < 0.1 µM | < 0.1 µM | < 0.5 µM | – | CC(NC(=O)c1c(N)nn2cccnc12)c1cc(Cl)c2cncn2c1N1CCC[C@@H]1C (stereo partly drawn) [Example 71B, 2-Amino-N-(1-{8-chloro-5-[(2S)-2-methylpyrrolidin-1-yl]imidazo[1,5-a]pyridin-6-yl}ethyl)pyrazolo[1,5-a]pyrimidine-3-carboxamide bistrifluoroacetate] |
| < 0.1 µM | < 0.1 µM | < 0.5 µM | – | CC(NC(=O)c1c(N)nn2cccnc12)c1cc(Cl)c2cncn2c1N1CCCC[C@H]1C (stereo partly drawn) [Example 72A, 2-Amino-N-{1-[8-chloro-5-[(2R)-2-methylpiperidin-1-yl)imidazo[1,5-a]pyridin-6-yl]ethyl}pyrazolo[1,5-a]pyrimidine-3-carboxamide bistrifluoroacetate] |
| < 0.1 µM | < 0.1 µM | < 0.5 µM | – | CC(NC(=O)c1c(N)nn2cccnc12)c1cc(Cl)c2cncn2c1N1CCCC[C@@H]1C (stereo partly drawn) [Example 72B, 2-Amino-N-{1-[8-chloro-5-[(2S)-2-methylpiperidin-1-yl)imidazo[1,5-a]pyridin-6-yl]ethyl}pyrazolo[1,5-a]pyrimidine-3-carboxamide bistrifluoroacetate] |
| < 0.1 µM | < 0.1 µM | < 0.5 µM | – | CC(NC(=O)c1c(N)nn2cccnc12)c1cc(Cl)c2cncn2c1N1CCC(C)(C)C1 (stereo not drawn) [Example 74, 2-Amino-N-{1-[8-chloro-5-(3,3-dimethylpyrrolidin-1-yl)imidazo[1,5-a]pyridin-6-yl]ethyl}pyrazolo[1,5-a]pyrimidine-3-carboxamide bistrifluoroacetate] |
| < 0.1 µM | < 0.5 µM | < 0.5 µM | – | CC(NC(=O)c1c(N)nn2cccnc12)c1cc(Cl)c2cncn2c1N1CC[C@@H](F)C1 (stereo partly drawn) [Example 75A, 2-Amino-N-(1-{8-chloro-5-[(3R)-3-fluoropyrrolidin-1-yl]imidazo[1,5-a]pyridin-6-yl}ethyl)pyrazolo[1,5-a]pyrimidine-3-carboxamide bistrifluoroacetate] |
| < 0.1 µM | < 0.1 µM | < 0.5 µM | – | CC(NC(=O)c1c(N)nn2cccnc12)c1cc(Cl)c2cncn2c1N1CC[C@H](F)C1 (stereo partly drawn) [Example 75B, 2-Amino-N-(1-{8-chloro-5-[(3S)-3-fluoropyrrolidin-1-yl]imidazo[1,5-a]pyridin-6-yl}ethyl)pyrazolo[1,5-a]pyrimidine-3-carboxamide bistrifluoroacetate] |
